Results on three compounds are retold here after patent US20260365677A1, “NEW CONTRAST AGENTS FOR USE IN DIAGNOSTIC IMAGING” (Bayer Aktiengesellschaft, priority 2022, published 2026).

Data set [1] in a line: Complex stability (transmetallation) with Zn2+ in phosphate buffer. It is filed as physicochemical. Conditions: over 72 hours, 2.5 mM Zn^2+, 26 mM phosphate buffer, 37 °C. On the procedure:
The used method is described elsewhere (Laurent S et al., Stability of MRI paramagnetic contrast media: a proton relaxometric protocol for transmetallation assessment. Invest Radiol. 2001 February; 36(2):115-22). […] If test compounds are instable under these conditions, transmetallation during this test would lead to the formation of the Zn^2+ complex of the test item, while Gd^3+ is released and precipitated as highly insoluble GdPO4.
After 3d of incubation T1 relaxation time was observed.

The conditions of data set [2]: 1.5 T, 37 °C, from Rohrer et al., cited from earlier work; for r1 plasma: bovine plasma instead of human plasma.
For data set [3] the following is noted: of the administered dose; cited from earlier work.
Data set [4] concerns organic anion-transporting polypeptides (OATP1B1, OATP1B3). Conditions: via OATP1B1, OATP1B3; cited from earlier work.
The nature of data set [5]: Partition coefficient (log P butanol/buffer). It is filed as physicochemical. Conditions: 50 mM Tris-HCl, pH 7.4, 10 μM, room temperature. On the procedure: The partition coefficient P (log P=log(Cbutanol/Cbuffer)) was determined in buffered aqueous solution (10 μM of compound in 0.5 mL 50 mM Tris-HCl saturated with Butanol, pH 7.4) and 1-butanol 1+1 and the mixture was shaken for 2 h at room temperature (n=3). The Gd-concentrations in each phase. CObutano, and Cbuffer were measured by ICP-MS (The Chemistry of Contrast Agents in Medical Magnetic Resonance Imaging” 2nd Ed. Merbach A S, Helm L, Toth E, eds. Hoboken, NJ: Wiley 2013).

The next data set concerns dentate nucleus. Conditions: after repeated administration; cited from earlier work.
For another data set, the system named is focal liver lesions. Conditions: patients with healthy liver or oncologic/cirrhotic liver patients; cited from earlier work.
A further data set deals with plasma proteins. Conditions: cited from earlier work.
Data set [6] can be described thus: Exploratory water solubility in 10 mM Tris-HCl buffer, pH 7.4. It is filed as physicochemical. Conditions: aqueous buffer (10 mM Tris-HCl), 20 °C. The procedure: The exploratory water solubility of the compounds is determined at room temperature (20 °C) in 0.5 mL buffer solution (10 mM Tris-HCl, pH 7.4) in the microcentrifuge tubes (Eppendorf, 2.0 mL safe-lock caps). The solid compounds were added stepwise to the buffer solution. More substance is added once all the suspended material is dissolved until an equilibrium between undissolved and dissolved substance is reached. The suspension was mixed using a shaker (Heidolph Reax 2000) and treated 5 min in an ultrasound bath (Bandelin, Sonorex Super RK255H). The Gadolinium concentration of the test substance in the clear solution is measured by ICP-MS.

The subject of data set [7] is multidrug resistance-associated protein 2 (MRP2). Conditions: via MRP2 (cMOAT); cited from earlier work.

Take `O=C([O-])CN1CCN(CC(=O)[O-])CCN([C@H](CO)[C@H](O)CO)CCN(CC(=O)[O-])CC1.[Gd+3]` (racemic) [RC3, gadobutrol]: in data set [1], the “Transmetallation stability (in words)” value is reported as “stable”. In [2], the r1 plasma was 5.2 L/mmol/s and the r1 water was 3.3 L/mmol/s.

One may read the Log P as the decadic logarithm of the partition coefficient of the neutral form, usually between octanol and water. Usually Solubility stands for the dissolved amount per volume that the medium holds. A high value points to much dissolved substance. `CCOc1ccc(CC(CN(CCN(CC(=O)[O-])CC(=O)[O-])CC(=O)[O-])N(CC(=O)[O-])CC(=O)[O-])cc1.[Gd+3].[Na+].[Na+]` (centres unmarked) [RC1, gadoxetate disodium]: the “secretion/excretion into the bile” value in data set [3] is “up to 50%”. The uptake by hepatocytes result in [4] is recorded as “mainly taken up by hepatocytes via organic anion-transporting polypeptides (OATP1B1, OATP1B3)”. Besides, the “Log P” value in [5] is −2.12. Also, in the data set with dentate nucleus, the “signal intensity in the dentate nucleus” value is recorded as “increased signal intensity in the dentate nucleus”. In addition, the “detection and identification of focal liver lesions by liver MRI” value with focal liver lesions is “able to detect and identify focal liver lesions with high specificity and sensitivity”. Besides, in the data set with plasma proteins, the protein binding result is recorded as “approximately 10%”. In [6], the Solubility is over 250 mM. The “excretion into the bile canaliculi” value in data set [7] is on record as “primarily excreted into the bile canaliculi via the multidrug resistance-associated protein 2”. Further, in data set [2], the r1 plasma was 6.9 L/mmol/s and the r1 water is 4.7 L/mmol/s.

With `O=C([O-])CN(CCN(CC(=O)[O-])CC(=O)[O-])CCN(CC(=O)[O-])C(COCc1ccccc1)C(=O)[O-].[Gd+3].[H+].[H+]` (centres unmarked) [RC2, gadobenic acid], in [5], the “Log P” value is −2.07. Also, the protein binding entry in the data set on plasma proteins is “approximately 10%”. In [2], the r1 plasma was 6.3 L/mmol/s and the r1 water was 4.0 L/mmol/s.
